Measured values as given in patent US20230355606A1, “LONG-ACTING FORMULATIONS” (Janssen Pharmaceutica NV, priority 2020, published 2023).
Where two headings read alike, the source gives them in different places.

Key:
[1] = system: M. tuberculosis H37Rv; assay type: in vivo, Mycobacterium tuberculosis; settings: for reduction of mean CFU count compared to untreated mice: R10 (5/7); for Mean (SD) log10 M. tuberculosis CFU/lung: rifampin 10 mg/kg, 5/7, gavage, mice
[2] = system: M. tuberculosis; settings: mice; cited from earlier work
[3] = system: mycobacterial ATP synthase versus eukaryotic mitochondrial ATP synthase; settings: cited from earlier work
[4] = system: Mycobacterium leprae; settings: M. lepra, mice; cited from earlier work

## CO[C@H]1/C=C/O[C@@]2(C)Oc3c(C)c(O)c4c(O)c(c(/C=N/N5CCN(C)CC5)c(O)c4c3C2=O)NC(=O)/C(C)=C\C=C\[C@H](C)[C@H](O)[C@@H](C)[C@@H](O)[C@@H](C)[C@H](OC(C)=O)[C@@H]1C [R, rifampin]
[1]; after 4 weeks of treatment
  reduction of mean CFU count compared to untreated mice: approximately 1 log10 CFU/lung
[1]; after 8 weeks of treatment
  reduction of mean CFU count compared to untreated mice: about 2 log10 CFU/lung
[1]; after 12 weeks of treatment
  reduction of mean CFU count compared to untreated mice: ~3 log10 CFU/lung
[1]; Week 4
  Mean (SD) log10 M. tuberculosis CFU/lung: 3.39 (0.46) log10 CFU/lung
[1]; Week 8
  Mean (SD) log10 M. tuberculosis CFU/lung: 2.74 (0.62) log10 CFU/lung
[1]; Week 12
  Mean (SD) log10 M. tuberculosis CFU/lung: 1.27 (0.85) log10 CFU/lung

## COc1nc2ccc(Br)cc2cc1[C@@H](c1ccccc1)[C@@](O)(CCN(C)C)c1cccc2ccccc12 [bedaquiline]
[2]
  minimal dose killing 99% of bacilli: 30 mg/kg/wk
[3]
  selectivity index: more than 20000
[4]
  minimal dose killing 99% of bacilli: < 5.0 mg/kg/wk
